Laboratory results taken from patent US5866787A, “Transgenic plants co-expressing a functional human 2-5A system” (Cleveland Clinic Foundation, priority 1995, dated 1999).

How the values were obtained:
RNase L [1] = assay: 2-5A uptake by cut leaves, 18S rRNA northern blot; format: cell-based, transgenic plant expressing human RNase L; details: 1 μM taken up by cut leaves for seven hours; not in control plant
Experimental: FIG. 30 illustrates that RNase L in cut leaves is activated to cleave rRNA by incubation in a solution containing 2-5A. A northern blot probed with ^32 P-labeled cDNA to […] rRNA is shown. The cut leaves are from a control plant (lanes 1 and 2) or from a plant transgenic for human RNase L cDNA (lanes 3 and 4). The presence or absence of 2-5A and the position of the 2-5A-mediated rRNA cleavage products are shown.
Leaves from control and transgenic plants are cut and allowed to take up 2-5A [1 μM of p3 (A2'p)3 A] through the petiole for about seven hours at room temperature under fluorescent light. Total RNA is prepared and used to prepare northern blots. THe RNA in the blots is hybridized to a ^32 P labeled human 18S rRNA cDNA probe (the cDNA is provided by Dr. John Thaden, Baltimore).
To monitor uptake of 2-5A, leaves are cut at the base of the petiole and then placed in a solution of ^32 P-labeled 2-5A probe for about three hours at room temperature under light. The petiole was cut further and autoradiograms were made from the lamina. Uptake and translocation of the 2-5A probe is readily apparent through veins to all parts of lamina (data now shown). Catalytic activity of RNase L in the intact leaves is determined after allowing unlabeled 2-5A, p3 A(2'p5'A)3 (1 μM), to be taken up by cut leaves for seven hours. […]

RNase L [2] = assay: 2-5A injection into detached leaves, 18S rRNA northern blot; format: cell-based, transgenic tobacco; details: about 2.5 μM injected, about 3 hrs; not in control or synthetase-only plants
Experimental: FIG. 24. […] Leaves are injected with about 2.5 μM 2-5A, total RNA is extracted after 3 hr and probed with ^32 P-labeled 18S cDNA. Lanes 1-2, control plant, lanes 3 and 4, plant expressing only 2-5A synthetase (Syn); lane 5, plant expressing only RNase L (RL); lanes 6-7, plants expressing both 2-5A synthetase and RNase L (Syn+RL).
Functional expression of RNase L in transgenic tobacco plants is detected by 2-5A-induced breakdown of 18S ribosomal RNA (rRNA) in detached leaves that are injected with 2-5A. Transgenic leaves are injected with about 2.5 μM p3 A(2'p5'A)3 and are incubated for about 3 hrs before total RNA is prepared. […] In addition, plants expressing RNase L are believed to have specific 2-5A binding activity that is absent in control, non-transgenic plants.

2-5A-dependent RNase [3] = details: cited from earlier work
[4] = test system: recombinant human RNase L; assay: 2-5A dependent ribonuclease L assay, poly(U) cleavage; format: biochemical; details: about 30° C. for about 2 hr
Experimental: FIG. 25. Transgenic plants produce functional, human recombinant 2-5A synthetase. Extracts of plants containing cDNA to both human RNase L and 2-5A synthetase (lanes 8-11), of control plants that are transformed with vector alone (lanes 12-15), and of interferon treated human HeLa cells (lanes 16 and 17) are assayed for 2-5A synthetase activity. 2-5A synthetase activity in extracts of transgenic plants is determined by a functional assay for 2-5A. […] The total cell lysates are centrifuged at about 10,000×g for about 10 min at about 4° C., the supernatants are collected and the protein concentration is determined as described in Bradford, M. et al.: Anal. Biochem., 72:248 (1976). […] 2-5A is monitored by its ability to activate RNase L, which are expressed and isolated from insect cells, Dong, B. et al.: J. Biol. Chem., 269:14153 (1994), to cleave poly (U) to discrete products (arrows). […]
To determine if 2-5A synthetase is present in the transgenic tobacco plants, functional assays for the enzyme are performed. 2-5A synthetase activity in extracts of transgenic plants is determined by a functional assay for 2-5A. […] The total cell lysates are centrifuged at about 10,000×g for about 10 min at about 4° C., the supernatants are collected and the protein concentration is determined. […]

2-5A-dependent RNase [5] = details: depending on the cell type; cited from earlier work
32P-2-5A probe = assay: 2-5A probe crosslinking to lysine to asparagine mutants, phosphorimager analysis; format: binding; details: uv crosslinking, phosphorimager analysis of dried gel

p3 A(2'p5'A)3
degradation of 18S rRNA in RNase L expressing plants (RNase L [1]): induce degradation of the 18S rRNA to discrete cleavage products
degradation of rRNA in plants expressing RNase L (RNase L [2]): degradation of rRNA

Nc1ncnc2c1ncn2[C@@H]1O[C@H](COP(=O)(O)OP(=O)(O)OP(=O)(O)O)[C@@H](O)[C@H]1O [ATP]
stimulatory effect on 2-5A-dependent RNase activity (2-5A-dependent RNase [3]): two-fold

pA(2'p5'A)3
activation of RNase L to cleave poly(U) [4]: production of discrete poly (U) cleavage products

interferon
enhancement of levels of 2-5A-dependent RNase (2-5A-dependent RNase [5]): two- to twenty-fold

B1: ZB1(Lys^240,274 →Asn): clone ZB1 double mutant, lysines 240 and 274 mutated to asparagine (protein, UniProt Q05921 1-735, looked up, variant K240N K274N)
2-5A-dependent ribonuclease: METPDYNTPQGGTPSAGSQRTVVEDDSSLIKAVQKGDVVRVQQLLEKGADANACEDTWGWTPLHNAVQAGRVDIVNLLLSHGADPHRRKKNGATPFIIAGIQGDVKLLEILLSCGADVNECDENGFTAFMEAAERGNAEALRFLFAKGANVNLRRQTTKDKRRLKQGGATALMSAAEKGHLEVLRILLNDMKAEVDARDNMGRNALIRTLLNWDCENVEEITSILIQHGADVNVRGERGNTPLIAAVERKHTGLVQMLLSREGINIDARDNEGNTALLIAVDKQLKEIVQLLLEKGADKCDDLVWIARRNHDYHLVKLLLPYVANPDTDPPAGDWSPHSSRWGTALKSLHSMTRPMIGKLKIFIHDDYKIAGTSEGAVYLGIYDNREVAVKVFRENSPRGCKEVSCLRDCGDHSNLVAFYGREDDKGCLYVCVSLCEWTLEEFLRLPREEPVENGEDKFAHSILLSIFEGVQKLHLHGYSHQDLQPQNILIDSKKAVRLADFDQSIRWMGESQMVRRDLEDLGRLVLYVVMKGEIPFETLKTQNDEVLLTMSPDEETKDLIHCLFSPGENVKNCLVDLLGHPFFWTWENRYRTLRNVGNESDIKVRKCKSDLLRLLQHQTLEPPRSFDQWTSKIDKNVMDEMNHFYEKRKKNPYQDTVGDLLKFIRNIGEHINEEKKRGMKEILGDPSRYFQETFPDLVIYIYKKLKETEYRKHFPQPPPRLSVPEAVGPGGIQS
2-5A binding activity, % of clone ZB1 (32P-2-5A probe): 12.2%
